Source: patent publication EP4461293B1, “BIOTIN RECEPTOR-BINDING […] COMPOUNDS” (Biomedical Research Foundation Academy of Athens, priority 2023, dated 2024)
Where “and” joins values, the source holds several entries; their conditions need not be identical. Equal values may be shown once. Read-outs that look alike come from different tables or passages of the source.

Experiments:
[1] = test system: HCT-116; assay: MTT viability assay, HCT-116; assay type: cell-based; details: 72h, human colon cancer cells, biotin receptor-negative (Table 3a)
[2] = test system: MCF-7; assay: MTT viability assay, MCF-7; assay type: cell-based, human
[3] = test system: MDA-MB-231; assay: MTT viability assay, MDA-MB-231; assay type: cell-based, human; details: 72h (Table 3b)
[4] = test system: SkBr3; assay: Platinum cell uptake by mass cytometry (CyTOF), SkBr3; assay type: cell-based; details: for cellular uptake (CyTOF Pt195 signal): 50 µM, 60 min, in comparison to 50 µM carboplatin (Figure 3)
Method: (§1) Cell cultures: Cancer cell lines, SkBr3, MDA-MB-231, MCF-7 and A549, which overexpress biotin receptors on their surface membranes, were each independently cultured in Dulbecco's Modified Eagle Medium (DMEM), supplemented with 10% fetal bovine serum (FBS), penicillin (100 µ/mL) and streptomycin (100 µg/mL) at 37 °C and 5% CO2.
(§2) For MCF-7, MDA-MB-231 and SkBr3 cell lines, an additional step was performed by preincubating for 15 min with 10-100 µM biotin. The quantification was performed by means of mass cytometry. Cell singlet discrimination - staining protocol B of the mass cytometer supplier (Fluidigm) was followed.
Medium was removed from cultures and cells were pelleted at 1500 rpm. Resuspension of cells was performed in an appropriate volume of RPMI 1640 or DMEM medium to obtain a density of about 1.5-3 x 10^6 cells per mL. Cells were fractionated and treated with different concentrations of each drug or maintained as is (control). […] Suspensions were incubated for 60 min at 37 °C and 5% CO2. Suspensions used to evaluate the effect of biotin in platinum cellular uptake, were preincubated with 100 µM biotin for 15 min before the treatment with each drug. After incubation, cells were stained using Maxpar cell staining buffer (MCSB) and then fixed using 1.6% paraformaldehyde in PBS for 10 min at room temperature. Incubation with intercalator 103Rh diluted in Maxpar fix-perm buffer was performed overnight at 4 °C. Cells were washed twice with MCSB, samples were pelleted and resuspended in cell acquisition solution (CAS). A small volume of suspensions was maintained to quantify cells using Trypan blue staining. As last step, each sample was diluted with CAS and calibration beads that include metal isotopes.

[5] = test system: SkBr3 human breast cancer cells; assay: MTT viability assay, SkBr3; assay type: cell-based; details: 72h (Table 3b)
[6] = Solubility; details: DMF
[7] = test system: MDA-MB-231; assay: Platinum cell uptake by mass cytometry (CyTOF), MDA-MB-231; assay type: cell-based; details: 50 µM, 60 min, in comparison to carboplatin (Figure 2)
Method: as §1, §2
(§3) Medium was removed from cultures and cells were pelleted at 1500 rpm. Resuspension of cells was performed in an appropriate volume of RPMI 1640 or DMEM medium to obtain a density of about 1.5-3 x 10^6 cells per mL. Cells were fractionated and treated with different concentrations of each drug or maintained as is (control). […] Suspensions were incubated for 60 min at 37 °C and 5% CO2. Suspensions used to evaluate the effect of biotin in platinum cellular uptake, were preincubated with 100 µM biotin for 15 min before the treatment with each drug. […] A small volume of suspensions was maintained to quantify cells using Trypan blue staining. […]

[8] = Pharmacokinetic study in mice, plasma by LC-MS/MS; assay type: in vivo, female C57BL/6 mice; details: ip
Method: Samples (plasma) were collected after 15, 30, 60 and 120 min of drug administration.
All samples were analyzed by an LC-MS/MS bioanalytical methodology.

[9] = test system: human mesenchymal stem cells (WJ-MSCs); assay: MTT viability assay, toxicity to normal cells; assay type: cell-based; details: 48 h growth in presence of drug, MTT assay (Figure 1)
Excerpt: Thus, human mesenchymal stem cells were extracted from Wharton's jelly (matrix) of the human fetal umbilical cord, also known as Wharton's Jelly Mesenchymal Stem cells (WJ-MSCs), from full-term pregnancies, as described in Christodoulou et al. [2022] and Goulielmaki et al. [2019].
WJ-MSCs up to seventh passage were used for this in vitro assay (b22 population doublings). The mean population doubling time (PDT) was 32+/- hours and cells maintained a consistent MSC immunophenotypic profile. […]
Cell viability of (WJ-MSCs) was determined colorimetrically in a 96-well plate assay, using the tetrazolium compound MTS (3-[4,5,dimethylthiazol-2-yl]-5-[3-carboxymethoxy-phenyl]-2-[4-sulfophenyl]-2H-tetrazolium, inner salt), which is bioreduced by cells into a colored formazan product that is soluble in tissue culture medium. […]
At a concentration of 3.5x10^2 cells/200 µL culture medium/well (37 °C, 5% CO2), WJ-MSCs were plated into 96-well microtiter plates. […] At the end, the absorbance was measured at 490nm (with 650nm as a reference wavelength) in a microplate reader (monochromator) [Monochro-mator Microplate Reader safire2 TECAN AUSTRIA GMBH/Measurement parameter Editor Magellan (version 6)].

[10] = test system: A549; assay: Platinum cell uptake by mass cytometry (CyTOF), A549; assay type: cell-based; details: 50 µM, 60 min, in comparison to carboplatin (Figure 2)
Method: as §1, §2, §3

[11] = 72h, with addition of 10 µM D-(+)-Biotin (Table 2b), read-out: MCF-7 and biotin IC50
[12] = 72h, without biotin (Table 2b), read-out: MCF-7 IC50

| SMILES | IC50 [1] | IC50 [2, 11] [µM] | IC50 [2, 12] [µM] | cellular uptake (CyTOF Pt195 signal) [4] | concentration at which less than 50% viability is reached [9] [µM] | also measured |
| --- | --- | --- | --- | --- | --- | --- |
| N.N.[Cl][Pt][Cl] [Cisplatin, reference compound] | 7 µM and 8 µM | 12 | 9 |  |  |  |
| CC(N)C(N)CCCCCC(=O)O.O=C1[O][Pt][O]C1=O [PMX118, (7R,8S)-7,8-diaminononanoic acid oxalatoplatinum(ll)] | 225 µM and > 250 µM | 290 | 133 | significantly greater |  | IC50 ([2]; 72h (Table 3b), read-out: MCF-7 IC50): 100 µM; IC50 [3]: 116 µM and 144 µM; IC50 [5]: 225 µM and > 250 µM |
| C[C@@H]1[NH2+][Pt-2]([Cl])([Cl])[NH2+][C@@H]1CCCCCC(=O)O [PMX114, (7R,8S)-7,8-diaminononanoic acid dichloroplatinum(II)] |  |  |  | significantly greater | > 300 | Solubility [6]: good; platinum uptake (CyTOF Pt195 signal) [7]: significantly greater; AUC ([8]; female, C57BL/6, mouse, 75 mg/kg, read-out: Areas under the curve (AUCs) (converted)): 42.1 µM·h; platinum uptake (CyTOF Pt195 signal) [10]: significantly greater; effect of biotin preincubation on platinum entry ([4]; preincubation with 100 µM of biotin for 15 min, then 50 µM drug): inhibition of platinum entry |
| [NH3+][Pt-2]1([NH3+])[O]C(=O)C2(CCC2)C(=O)[O]1 [Carboplatin] |  |  |  |  | 100 | Cmax ([8]; mouse, 60 mg/kg): 131 ± 50 µM; AUC at 2 h ([8]; mouse, 60 mg/kg, read-out: Areas under the curve (AUCs) (converted)): 69.4 µM·h |
